In patent US20230167406A1, “COMPOSITIONS AND METHODS OF PROMOTING MYELINATION” (The Children's Medical Center Corporation, priority 2020, published 2023):
Entries after “also recorded” stand apart in the source; their conditions may differ. Where a name gives a salt, the structure may show the parent alone.

Key:
[1] = system: proliferating OPCs in injured optic nerves; assay: In vivo compound screening for OPC differentiation (BrdU+/CC1+ cells) after optic nerve crush; parameters: species or system mouse; conditions: wild type C57BL/6 mice; for number of BrdU+ and CC1+ double positive cells (OPC differentiation) in injured optic nerves: compound once daily for 4 weeks from day 1 post optic nerve crush, BrdU daily days 4-10; for pro-differentiation effect compared with the other screened compounds: 4 week treatment after optic nerve crush
[2] = system: regenerated axons in injured optic nerves; assay: Electron microscopy of myelination of regenerated axons in injured optic nerves; type: in vivo, mouse; conditions: 4 weeks after injury; for regenerated axons that became myelinated: Montelukast dpi1-28 and/or PLX3397 dpi15-28
Procedure: To do this, AAVs expressing osteopontin/IGF1/CNTF were injected into the vitreous bodies of PDGFRα-CreER:iRTM mice to activate the intrinsic regenerative ability of RGCs and optic nerve injury was performed in 2 weeks. These mice were then treated with Montelukast (for 4 weeks from dpi1 to dpi28) and/or PLX3397 (for two weeks during dpi 15-28).
Mice were perfused with 4% paraformaldehyde with 2.5% glutaraldehyde in 0.1 M sodium cacodylate buffer, pH 7.2. Optic nerves were dissected and fixed in the same fixative solution overnight. Samples were then processed by the Harvard EM core based on the following procedure: nerves were rinsed in PBS, postfixed in 1% OsO4 in PBS for 1 h, dehydrated in a graded ethanol series, infiltrated with propylene oxide, and embedded in Epon. Semithin sections were stained with toluidine blue, and ultrathin sections were stained with lead citrate. Ultrathin sections were taken under JEOL 1200EX-80 kV electron microscope. The number of myelinated axons per nerve was analyzed in ultrathin sections at magnification 3,000× to 20,000×.

[3] = system: OPCs and their progenies in injured optic nerves; assay: OPC lineage tracing (CC1/Oligo1 staining of RTM+ cells) in PDGFRα-CreER/iRTM mice after optic nerve crush; type: in vivo, mouse
Source text: To trace the progenies of OPCs, a different reporter mouse line was utilized, namely PDGFRα-CreER (Kang et al., Neuron 68, 668-681, 2010) crossed with Rosa26-STOP-Tomato mice, or PDGFRα-CreER/iRTM mice (Arenkiel et al., 2011). Upon tamoxifen administration, Cre expression is induced in PDGFRα^+ OPCs, leading to RTM expression not only in these OPCs but also their differentiated progenies. To monitor their differentiation, two well-documented markers were used, namely CC1 and Oligo1. CC1 is a marker for all differentiated cells from OPCs. The translocation of Oligo1 from the nucleus to the cytoplasm has been implicated as a hallmark of late differentiation into myelinating oligodendrocytes. Therefore, with these immunohistochemistry assessments, these cells could be separated into three stages: un-differentiated OPCs (CC1^− and nuclear Oligo1), early differentiated OPCs (CC1+ and nuclear Oligo1) and mature oligodendrocytes (CC1^+ and cytoplasmic Oligo1) (FIG. 111).
Immediately prior to optic nerve crush, tamoxifen was injected into PDGFRα-CreER/iRTM mice in order to label pre-existing OPCs (Young et al., Neuron 77, 873-885, 2013). Then, the fate of labeled OPCs was examined by immunohistochemistry with anti-CC1 and anti-Oligo1 at 4 weeks after injury (FIG. 1I).
As the majority of OPC proliferation occurs in the first week after injury (FIG. 1), it was hypothesized that a delayed PLX3397 treatment at 2-4 weeks after injury could bypass their inhibition on proliferation, permitting assessment of its effects on OPC differentiation. To do this, a separate experiment was performed in which PLX3397 was administered from 2 to 4 weeks after injury in PDGFRα-CreER:iRTM mice as used in FIGS. 1G-1M, 3L.
For PDGFRα-CreER mice, Tamoxifen (100 mg/kg, p.o.) was administered for 5 days right before optic nerve crush. […] Pexidartinib (PLX 3397) was mixed in food chow at 290 mg/kg by LabDiet laboratory animal nutrition.

[4] = system: activated microglia in injured optic nerves; assay: Microglia depletion in injured optic nerves (CD68 immunoreactivity); type: in vivo, mouse; conditions: systemic application (food chow)
Source text: FIG. 3G comprises representative images of optic nerves, from adult mice 2 weeks after unilateral optic nerve crush injury and with or without PLX3397 treatment, stained with antibodies against CD68. Scale bar: 40 μm.
FIG. 3H is a graph quantifying the CD68 immunoreactivity signal. […] mice per group. Scale bar: 40 μm. *, **, *** p<0.05, 0.01, 0.001, respectively.
(§1) Thus, it appears that microglia activation is required for injury-induced OPC proliferation.
For PDGFRα-CreER mice, Tamoxifen (100 mg/kg, p.o.) was administered for 5 days right before optic nerve crush. For OPC proliferation assays, BrdU (100 mg/kg, i.p.) was injected at 3 hours before sample collection. […]
(§2) Cryosections (12-μm thick) were permeabilized and blocked in blocking buffer (0.5% Triton X-100 and 5% normal goat serum in PBS) for 1 h at room temperature and overlaid with primary antibodies overnight at 4° C. […] For each biological sample, 3-5 sections of each optic nerve were imaged under 10× or 20×objectives for quantification. Positive cell numbers were then quantified manually using the Plugins/Analyze/Cell Counter function in ImageJ software. For fluorescent intensity analysis, the images were first converted to 8-bit depth in ImageJ software and then, the mean intensity value was calculated by the build-in function: Analyze/Measure.

[5] = system: OPCs in injured optic nerves; assay: OPC proliferation by BrdU/GFP/Olig2 labeling in PDGFRα-H2B-GFP mice; type: in vivo, mouse; conditions: PLX3397 from 7 days before crush, examined 14 days after injury
Procedure: FIG. 3I is a schematic of experiments to assess OPC proliferation with the treatment of PLX3397 (PLX) or its vehicle control (Vec) in PDGFRα-H2B-GFP mice. […]
as §1
For PDGFRα-CreER mice, Tamoxifen (100 mg/kg, p.o.) was administered for 5 days right before optic nerve crush. For OPC proliferation assays, BrdU (100 mg/kg, i.p.) was injected at 3 hours before sample collection. For drug screening assays, BrdU was injected daily from day 4 to day 10 post optic nerve crush. Each compound or the corresponding Vehicle was administered once daily for 4 weeks started from day 1 post optic nerve crush (Table 2). […]
as §2

[6] = system: OPCs distal to the optic nerve injury; assay: TNFα inhibitor treatment after optic nerve injury (BrdU/CC1/Olig2 staining, lineage reporter mice); type: in vivo, mouse
Source text: The morphology is very distinct from other treatments, such as GPR17 antagonist treatment (FIG. 5E).

[7] = PDGFRα-CreER/iRTM mice, Montelukast treatment for 4 weeks
[8] = PDGFRα-CreER:iRTM mice, delayed treatment from 2 to 4 weeks after injury

SMILES: C=C(c1ccc(C(=O)O)cc1)c1cc2c(cc1C)C(C)(C)CCC2(C)C [Bexarotene]
- number of BrdU+ and CC1+ double positive cells (OPC differentiation) in injured optic nerves [1]: increased CC1^+ cells, albeit the increase did not reach statistical differences

SMILES: CC(C)(O)c1ccccc1CC[C@@H](SCC1(CC(=O)O)CC1)c1cccc(/C=C/c2ccc3ccc(Cl)cc3n2)c1 [Montelukast]
- thickness of myelin structures [2]: much thinner than those after PLX treatment
- regenerated axons that became myelinated [2]: about 20%
- pro-differentiation effect compared with the other screened compounds [1]: strongest effect
- pro-differentiation effect compared with the other screened compounds ([1]; listed as montelukast): strongest
- number of BrdU+ and CC1+ double positive cells (OPC differentiation) in injured optic nerves [1]: significantly increased
- proportion of CC1+RTM+ cells with nuclear, but not cytoplasmic, Oligo1 immunoreactivity [3, 7]: 77%
- total RTM+ cell numbers [3, 7]: increased
- proportion of RFP+ (RTM+) cells that became CC1+ ([3]; PDGFRα-CreER/iRTM mice, Montelukast treatment for 4 weeks after optic nerve injury, 12% in vehicle-treated mice): 64%

SMILES: FC(F)(F)c1ccc(CNc2ccc(Cc3c[nH]c4ncc(Cl)cc34)cn2)cn1 [PLX3397, Pexidartinib]
- depletion of microglia in vivo (CD68) [4]: depleted; also recorded: specifically deplete microglia
- regenerated axons that became myelinated [2]: about 20%
- CC1+ cells [3, 8]: increased
- proportion of CC1+RTM+ cells expressing cytoplasmic Oligo1 [3, 8]: 78%
- total numbers of OPCs [5]: profoundly reduced

SMILES: O=C(Nc1cccc2c(=O)cc(-c3nn[nH]n3)oc12)c1ccc(OCCCCc2ccccc2)cc1 [Pranlukast]
- number of BrdU+ and CC1+ double positive cells (OPC differentiation) in injured optic nerves [1]: increased OPC differentiation but did not reach statistical significance

SMILES: O=C(O)CCC(=O)O.O=C(O[C@H]1CN2CCC1CC2)N1CCc2ccccc2[C@@H]1c1ccccc1 [Solifenacin, Solifenacin succinate]
- number of BrdU+ and CC1+ double positive cells (OPC differentiation) in injured optic nerves [1]: significantly increased
- number of BrdU+ and CC1+ double positive cells (OPC differentiation) in injured optic nerves ([1]; listed as solifenacin): significantly increased OPC differentiation

SMILES: O=C1CCC(N2C(=O)c3ccccc3C2=O)C(=O)N1 (stereo not shown) [Thalidomide]
- differentiation of OPCs in lineage reporter mice ([6]; PDGFRα-CreER/iRTM lineage reporter mice, 2 to 4 weeks post-injury): OPCs differentiated into mature myelinating oligodendrocytes
- BrdU+/CC1+/Olig2+ cells distal to the injury ([6]; administered from 2 weeks to 4 weeks post-injury): robust increase

SMILES: CN1C2CCC1CC(OC(c1ccccc1)c1ccccc1)C2 (stereo not shown) [benztropine mesylate, Benztropine mesylate]
- number of BrdU+ and CC1+ double positive cells (OPC differentiation) in injured optic nerves [1]: significantly increased
- number of BrdU+ and CC1+ double positive cells (OPC differentiation) in injured optic nerves ([1]; listed as benztropine): significantly increased OPC differentiation

SMILES: CN1CCC[C@@H]1CCO[C@](C)(c1ccccc1)c1ccc(Cl)cc1.O=C(O)/C=C/C(=O)O [clemastine, Clemastine fumarate]
- number of BrdU+ and CC1+ double positive cells (OPC differentiation) in injured optic nerves [1]: increased CC1^+ cells, albeit the increase did not reach statistical differences
